PMC12340723, “Validation of Hv1 channel functions in BV2 microglial cells using small molecule modulators” (Frontiers in Cellular Neuroscience, 2025)

How the values were obtained:
[1] = target: T1, Voltage-gated proton channel Hv1 (Mus musculus, UniProt Q3U2S8); assay: whole-cell patch clamp at +[…] mV in BV2 cells (activator); BCECF pH-recovery assay, effect abolished by Hv1 shRNA; format: cell-based
T1 construct: gene Hvcn1; endogenous Hv1 in BV2 microglial cells
T1 sequence (Q3U2S8 1-269): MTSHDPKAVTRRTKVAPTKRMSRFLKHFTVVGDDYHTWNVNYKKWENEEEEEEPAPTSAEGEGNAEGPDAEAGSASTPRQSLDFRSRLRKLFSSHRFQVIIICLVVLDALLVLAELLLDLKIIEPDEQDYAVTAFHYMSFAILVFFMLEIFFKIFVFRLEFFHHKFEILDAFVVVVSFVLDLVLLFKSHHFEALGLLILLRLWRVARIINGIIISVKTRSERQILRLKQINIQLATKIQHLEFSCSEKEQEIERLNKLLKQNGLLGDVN

[2] = target: T1, Voltage-gated proton channel Hv1; assay: whole-cell patch clamp at +[…] mV in BV2 cells; BCECF pH-recovery assay, effect abolished by Hv1 shRNA; format: cell-based

Question: How did the EC50 [1] turn out when `O=C(CC1Sc2ccccc2NC1=O)Nc1ccccc1Cl` (centres unmarked) [S-023-0515] was run?
Answer: 8.41 ± 1.9 µM

Question: For `O=C(CC1Sc2ccccc2NC1=O)Nc1ccc(Cl)cc1` (centres unmarked) [YHV98-4], which IC50 [2] is on record?
Answer: 2.6 ± 1.1 µM
